# Reference: US8449923B2, “Methods for inhibiting sensory nerves by topically administering strontium-containing compositions to keratinized skin” (Cosmederm Bioscience, Inc., priority 1994, dated 2013)
# Read-outs that look alike come from different tables or passages of the source.
# Assays:
# [1] = tested on: skin irritation induced by lactic acid (face); test: Lactic acid irritation trial, pretreatment test (anti-irritant applied 15 minutes before irritant); assay type: in vivo, human; conditions: pretreatment tests; for Percent Inhibition (average inhibition of cumulative irritation): cation salt 250 mM, lactic acid irritant; for Percent Inhibition: representative subject panels, 250 mM, vehicle VIS DIFFERENCE
# Protocol: (§1) The majority of the trials were conducted using lactic acid as the skin irritant, and proceeded generally as follows.
# (§2) Tests were conducted in multiple panels of from 7 to 12 subjects each. Subjects were instructed not to wear any makeup or facial lotions to the clinic the day of testing. The subjects were instructed to wash their face with Ivory bar soap in the clinic prior to application of test solutions.
# (§3) Lactic acid skin-irritant compositions were formulated in an appropriate vehicle prior to application to the skin of the subjects.
# (§4) Test anti-irritant formulations containing measured amounts of strontium salts (concentration 250 mM) were applied either (a) 15 minutes prior to application to the skin of the skin-irritant (“pretreatment test”) or (B) simultaneously with the application of the skin-irritant (“time zero test”). […] Controls were performed by applying corresponding formulation(s) (pretreatment and/or skin-irritant composition) with an equimolar amount of sodium chloride to a contralateral portion of the subject's skin. Typically, the test materials were applied to the face of the subject.
# (§5) All test solutions (including controls) were applied in a double blind, randomized fashion using the prepared solutions as previously placed in coded vial designated for use on either the right or left side of the face (or other test area). Solutions were typically applied using a cotton swab (six strokes) or sponge applicator to the face and cheek area extending from the midline of the nose over to the center of the cheek and from the cheek bone down to the jaw line. Application was made first to the right side and then to the left.
# (§6) Sensory assessment scores were recorded for each treated side of the subject's skin every minute for 15 minutes or until three consecutive scores of “zero” irritation were obtained. The following scaled scores were used for sensory assessment:
# (§7) Symptom scores were cumulated, separately for the cation-treated and control-treated areas, for each individual and also for the panel as a whole. Individuals not reporting a cumulative score of at least “7” on at least one treatment area were excluded (in a blinded fashion) from further analysis in order to ascertain anti-irritant efficacy with respect to the more severely-susceptible test subjects. From a practical standpoint, scores of “0” and “1” on the above scale would be considered highly desirable for a commercial product because such a response would likely not result in a consumer ceasing to use a product. Some consumers, in fact, might view the “barely perceptible” sensations represented by a score of 1 to be an indication that a facial treatment skin care product (especially an exfoliant) was working as advertised. By contrast, irritation scores of “2”, “3” and “4” would likely often result in a consumer never purchasing the product again.
# [2] = tested on: skin irritation induced by lactic acid (face); test: Lactic acid irritation trial, time zero test (anti-irritant applied simultaneously with irritant); assay type: in vivo, human; conditions: for Percent Inhibition (average inhibition of cumulative irritation) / Percent Inhibition: time zero tests; for Percent Inhibition (average inhibition of cumulative irritation): cation salt 250 mM, lactic acid irritant; for Percent Inhibition: representative subject panels, vehicle 10% EtOH
# Protocol: as §1, §2, §3, §4, §5, §6, §7
# [3] = tested on: skin irritation induced by lactic acid
# Protocol: Additional studies of anti-irritant activity using varying concentrations of strontium cations were conducted in order to assess the dose-response behavior of the present formulations. The lactic acid irritation protocol described above was used, in which the anti-irritant cation component was strontium nitrate (31-500 mM).
# [4] = tested on: irritation induced by capsaicin; conditions: 250 mM; capsaicin challenge; pretreatment
# From the text: The test compounds of the invention were formulated in Elizabeth Arden “Visible Difference Refining Toner”, with the Toner mixed with equimolar sodium chloride serving as the control. The test solutions (and control) were provided in coded vials for application to either the right or left arms. A template (1.5 in.×4.0 in.) was placed on each forearm to mark the challenge area. The pre-treatment solutions containing the anti-irritant cation of the invention were applied to extend 1 inch beyond the marked challenge area in all directions and were allowed to dry for 5 minutes. 0.5 ml of 0.15% capsaicin cream or a swab moistened with capsaicin solution was thereafter applied to each arm by the clinical technician, who rubbed in the cream using gloved fingers. Application and scoring of test and control formulations was performed sequentially for each arm. Scoring was recorded every minute starting at 5 minutes post-application for 10 minutes and then every 5 minutes for 15 minutes (30 minutes total) for the cream, and every minute starting immediately for 15 minutes for the solution. Assessment was made using the irritation scale described above for the lactic acid test, and a simultaneous visual assessment of erythema was made by the monitoring technician.
Compound,Percent Inhibition (average inhibition of cumulative irritation) [1] [%],Percent Inhibition [1] [%],"overall efficacy in one panel (FIGS. 1-4) ([2]; 250 mM, time zero test, one panel)",Percent Inhibition (average inhibition of cumulative irritation) [2] [%],Percent Inhibition ([2]; 250 mM) [%],Percent Inhibition (cumulative irritation) ([3]; concentration 31 mM) [%],Percent Inhibition (cumulative irritation) ([3]; concentration 62 mM) [%],Percent Inhibition (cumulative irritation) ([3]; concentration 125 mM) [%],Percent Inhibition (cumulative irritation) ([3]; concentration 250 mM) [%],Percent Inhibition (cumulative irritation) ([3]; concentration 500 mM) [%],overall efficacy in one representative panel (FIGS. 5-8) [4]
CC(=O)[O-].CC(=O)[O-].[Sr+2] [Strontium acetate],46,46,,,,,,,,,
O=[N+]([O-])[O-].O=[N+]([O-])[O-].[Sr+2] [Strontium nitrate],50,56,the overall efficacy of the subject formulation is clear,65,64,77,32,42,72,82,the overall efficacy of the subject formulation is evident
[Cl-].[Cl-].[Sr+2] [Strontium chloride],25,20,,60,58,,,,,,
